Experimental findings from PMC12040169 (PLOS Biology, 2025) are described below.

For orientation: viability means a read-out of living cells in per cent, often relative to untreated cells.

A short description of this data set: in vitro. The settings on record: human, hela cells, % viability.

In the case of `Cc1ccc(S(=O)(=O)c2nc(NCCN3CCOCC3)sc2Cl)cc1` [CBK269615], the viability at 28.5 h, 10 µM stood at 79.7%.

As to `O=[N+]([O-])c1ccc2c(c1)C(N1CCOCC1)/C(=C/COc1ccc3ccccc3c1Br)O2` (stereo not drawn) [CBK262738], the viability at 28.5 h, 10 µM stood at 97.1%.

For `COc1ccc(C2Oc3cccnc3N(CCCN(C)C)C2=O)cc1` (stereo not drawn) [CBK007694], the viability at 28.5 h, 10 µM was determined as 101%.

For `O=C(N[C@H]1C[C@H]2C(=O)NC[C@@H](CCC(=O)N3CCCCC3)N2C1)c1cccs1` [CBK289010], the viability at 28.5 h, 10 µM amounted to 87.9%.

Regarding `COC(=O)/C=C/c1cccc(-c2cnc(N)c(-c3ccc(O)cc3)n2)c1` [CBK125689], the viability at 28.5 h, 10 µM was 83.7%.

Regarding `CSc1ccc(-c2nc(NC(=O)C(C)C)cc3ccccc23)cc1` [CBK085735], the viability at 28.5 h, 10 µM was found to be 95.5%.

Regarding `COc1ccc(CC2CCCN2C(=O)Cn2cncn2)cc1` (stereo not drawn) [CBK306351], the viability at 28.5 h, 10 µM was 97.3%.

Consider `O=C(O)C1CCN(S(=O)(=O)c2ccc(F)cc2)CC1` [CBK100196], for which the viability at 28.5 h, 10 µM is 102%.

For the compound `O=C(CC(=O)Nc1c(Cl)cccc1C(F)(F)F)Nc1c(Cl)cccc1C(F)(F)F` [CBK263148], the viability at 28.5 h, 10 µM was found to be 103%.

For the compound `CC(C)(C)OC(=O)NC(C)(C)C(=O)N1C[C@H](C(=O)N2CCC3(CC2)CN(S(C)(=O)=O)c2ccccc23)[C@@H](c2nc3ccccc3s2)C1` [CBK136737], the viability at 28.5 h, 10 µM was 91.5%.

As for `Cn1nccc1CCNS(=O)(=O)c1cccc(C(=O)N2CCCCC2)c1` [CBK307086], the viability at 28.5 h, 10 µM was 89.2%.

For `CO/N=C(N)/C(N)=N/OC` [CBK019780], the viability at 28.5 h, 10 µM is 98.4%.

Turning to `Cc1ccc(F)cc1C(=O)NCC1CCN(c2cnn(C)c(=O)c2)C1` (stereo not drawn) [CBK307235], the viability at 28.5 h, 10 µM stood at 92.2%.

Take `COc1ccc(C2CC(=O)C(=CNCCN3CCN(C(=O)c4ccccc4)CC3)C(=O)C2)cc1` (stereo not drawn) [CBK264762]: the viability at 28.5 h, 10 µM worked out at 104%.

For the compound `O=C(CSc1nnc(-c2ccncc2)n1-c1ccc(Cl)cc1)Nc1ccccc1-c1ccccc1` [CBK266205], the viability at 28.5 h, 10 µM turned out to be 104%.

On to `Cn1c(C2CC2)nc2c1CCN(Cc1cn3cc(Cl)ccc3n1)C2` [CBK305314], for which the viability at 28.5 h, 10 µM came out at 92.8%.

Take `CC(C)[C@@H](N)Cn1nnc2ccccc21` [CBK284323]: the viability at 28.5 h, 10 µM was 82.7%.

Consider `O=C(Nc1ccc(N2CCN(Cc3ccccc3F)CC2)cc1)c1cccnc1` [CBK267250], for which the viability at 28.5 h, 10 µM stood at 106%.

`C(=C\c1ccccc1)/Cn1c(COc2ccccc2)nc2ccccc21` [CBK265535]: the viability at 28.5 h, 10 µM was 91.6%.

For `CN(C)CCCn1cnc2c1c(=O)[nH]c(=O)n2C` [CBK287913], the viability at 28.5 h, 10 µM worked out at 92.2%.

Turning to `CC1=C[C@@H](CNS(=O)(=O)c2ccccc2)[C@H](C(C)C)C[C@H]1CC(=O)N1CCCC1` [CBK289054], the viability at 28.5 h, 10 µM was 122%.

Take `CN1CCN(C(=O)c2ccccc2NC(=O)c2ccc(C(C)(C)C)cc2)CC1` [CBK270054]: the viability at 28.5 h, 10 µM worked out at 93.4%.

Consider `Nc1ncc(-c2cccc(CO)c2)nc1NC1CCCCC1` [CBK063650], for which the viability at 28.5 h, 10 µM is 101%.

Turning to `CCOC(=O)c1sc(NC(=O)C2CCCO2)c(C(N)=O)c1C` (stereo not drawn) [CBK058830], the viability at 28.5 h, 10 µM was 91.3%.

For `O=C(c1ccco1)N1CCC[C@@H]1Cn1c(=O)oc2ccccc21` [CBK284538], the viability at 28.5 h, 10 µM was 87.6%.

With `Cc1cc(NC(=O)CCN2CCC(N3CCNC3=O)CC2)no1` [CBK304909], the viability at 28.5 h, 10 µM worked out at 89.9%.

As to `CC(C)c1ccc(S(=O)(=O)N(C)Cc2cccnc2)cc1` [CBK043582], the viability at 28.5 h, 10 µM was determined as 108%.

Take `O=C(O)c1cc(C=Cc2cn(Cc3ccccc3)nc2-c2cccnc2)nc2ccccc12` [CBK296988]: the viability at 28.5 h, 10 µM stood at 105%.

As for `O=C(c1cccc(C(=O)N(Cc2ccccc2)c2ccccn2)c1)N(Cc1ccccc1)c1ccccn1` [CBK091794], the viability at 28.5 h, 10 µM came to 111%.

For `CCn1c(=O)n(CC(=O)NCCc2ccccc2)c2cccnc21` [CBK283812], the viability at 28.5 h, 10 µM was 76.1%.

For the compound `COc1ccc(CN2CCN(C(=O)c3cccc(F)c3)CC2)cc1` [CBK304396], the viability at 28.5 h, 10 µM was 97%.

Take `Cc1cc(OCC(=O)N2CCC(C(=O)Nc3ccccc3)CC2)no1` [CBK305067]: the viability at 28.5 h, 10 µM is 99.5%.

For `COc1ccc(-c2ccc3c(c2)C(=O)N2CCN(C(=O)CC(C)(C)C)C[C@@H]2C(=O)N3)cc1` [CBK289584], the viability at 28.5 h, 10 µM stood at 94.6%.

Regarding `CC(C)(CNC(=O)c1ccc(=O)n(CC(=O)Nc2ccc(F)cc2)c1)c1cccc(F)c1` [CBK285955], the viability at 28.5 h, 10 µM was 86.7%.

With `CC1Cc2ccccc2N1C(=O)c1nn(C)cc1I` (stereo not drawn) [CBK058268], the viability at 28.5 h, 10 µM came to 97.3%.

Consider `O=C(NC1CC1)[C@@H]1C=CCN1S(=O)(=O)c1ccc(F)cc1` [CBK284294], for which the viability at 28.5 h, 10 µM was 92.5%.

For `CCn1cc(C(=O)NN)c(=O)c2cc(F)c(N3CCCC3)cc21` [CBK307146], the viability at 28.5 h, 10 µM worked out at 82.9%.

Consider `CC(C)(C)OC(=O)N1CCC(N(CCC(F)(F)F)Cc2ccc(-c3ccc(S(C)(=O)=O)cc3)nc2)CC1` [CBK167262], for which the viability at 28.5 h, 10 µM is 81%.

As for `COc1cc(Cl)c(C)cc1NC(=O)C1CC=CCC1C(=O)O` (stereo not drawn) [CBK296667], the viability at 28.5 h, 10 µM came to 94.1%.

In the case of `CC1Oc2ccccc2OC1C(=O)Nc1nnc(Cc2ccccc2)s1` (stereo not drawn) [CBK295634], the viability at 28.5 h, 10 µM came to 90.5%.

Regarding `O=S(=O)(c1ccccc1)C1C2C=CC(COC3CCCCO3)(O2)C1S(=O)(=O)c1ccccc1` (stereo not drawn) [CBK020045], the viability at 28.5 h, 10 µM came to 92.6%.

`CC(C)(C)NCCN1CCn2c1nc1ccccc12` [CBK019113]: the viability at 28.5 h, 10 µM came to 82%.

With `O=C(NCc1ccc2occc2c1)c1ccc2[nH]ccc2c1` [CBK149055], the viability at 28.5 h, 10 µM was found to be 89.7%.

`COc1ccc(OC)c(S(=O)(=O)n2ccc3c(N4CCNCC4)nccc32)c1` [CBK059067C]: the viability at 28.5 h, 10 µM was found to be 101%.

On to `COc1ccc(-c2nc3cc(C(C)C)ccc3o2)cc1NC(=O)Cc1ccc(Cl)cc1` [CBK266409], for which the viability at 28.5 h, 10 µM was 96.9%.

Regarding `CCn1c(=O)n(CC(C)(C)O)c2cc(S(=O)(=O)N(C)C)ccc21` [CBK304893], the viability at 28.5 h, 10 µM is 92.8%.

On to `COCCn1nc(C(=O)N2CCCc3ccccc32)ccc1=O` [CBK305590], for which the viability at 28.5 h, 10 µM amounted to 85.1%.

Take `Cc1ccc(Br)cc1S(=O)(=O)N1CCN(C(c2ccccc2)c2ccccc2)CC1` [CBK263433]: the viability at 28.5 h, 10 µM was 95.3%.

Turning to `O=[N+]([O-])c1ccc(/C=N/CCCN2CCOCC2)cc1` [CBK261058], the viability at 28.5 h, 10 µM came to 87.5%.

`N#Cc1c(CN2CCCC(c3noc(C4CC4)n3)C2)cn2ccccc12` (stereo not drawn) [CBK305332]: the viability at 28.5 h, 10 µM is 98.7%.

With `CN(CCc1ccccc1)Cc1nc2ccccc2c(=O)[nH]1` [CBK283204], the viability at 28.5 h, 10 µM amounted to 98.7%.

For `Cc1coc(C)c1C(=O)CC1(O)C(=O)N(CCc2ccccc2)c2ccccc21` (stereo not drawn) [CBK293975], the viability at 28.5 h, 10 µM was 84.8%.

On to `Cc1ccc(-n2c(SCC(=O)Nc3ccccc3F)nnc2-c2ccccc2O)c(C)c1` [CBK268905], for which the viability at 28.5 h, 10 µM came to 88.6%.

As for `CN(C(=O)c1ccc2c(c1)NC(=O)CS2)c1ccccc1` [CBK296612], the viability at 28.5 h, 10 µM was found to be 105%.

As to `CN(C)CCN1CCN(CC2(c3ccc(Cl)cc3)CC2)CC1` [CBK282783], the viability at 28.5 h, 10 µM was determined as 103%.

Regarding `CCNS(=O)(=O)c1ccc2c(c1)N(Cc1nc(C)c(C)o1)CC2` [CBK305189], the viability at 28.5 h, 10 µM is 51.5%.

`CCOc1ccc(N2C(=O)CC(N3CCN(CCc4ccncc4)CC3)C2=O)cc1` (stereo not drawn) [CBK269930]: the viability at 28.5 h, 10 µM was 106%.

For the compound `Cc1cccc2c1CC(=O)NC21CCN(CC(=O)c2ccc(F)cc2)CC1` [CBK039946], the viability at 28.5 h, 10 µM was 96%.

Turning to `COc1cc(CNn2c(C)nnc2S)cc(Br)c1OCC(=O)NC(C)(C)C` [CBK266575], the viability at 28.5 h, 10 µM was determined as 112%.

`Fc1ccc(Sc2cccc(C(F)(F)F)n2)cc1` [CBK115240]: the viability at 28.5 h, 10 µM is 97.5%.

Regarding `CC(C)(C)c1cc(N)c(C(N)=O)s1` [CBK016752], the viability at 28.5 h, 10 µM was determined as 91.3%.

With `COc1ccc(C(=O)Nc2ccccc2C(=O)N2CCOCC2)cc1Br` [CBK269923], the viability at 28.5 h, 10 µM worked out at 85.4%.

For the compound `FC(F)(F)c1cccnc1OCCN1CCOCC1` [CBK113456], the viability at 28.5 h, 10 µM is 101%.

As for `CC(=O)NCc1nnc2c3ccccc3c(-c3ccccc3)nn12` [CBK270123], the viability at 28.5 h, 10 µM was 92.3%.

Take `O=C(c1cn2ccccc2n1)N1CCC(c2ccccc2)C1` (stereo not drawn) [CBK281850]: the viability at 28.5 h, 10 µM was 104%.

As to `CCn1c(Cc2ccccc2)nnc1SCC(=O)Nc1cc(Cl)ccc1O` [CBK268689], the viability at 28.5 h, 10 µM was 104%.

In the case of `CCc1nccn1CCC(=O)NC1CCN(Cc2ccncc2)CC1` [CBK306813], the viability at 28.5 h, 10 µM worked out at 107%.

As for `OC(c1cccs1)C1CCN(Cc2cnn(-c3ccccc3)c2)CC1` (stereo not drawn) [CBK307290], the viability at 28.5 h, 10 µM turned out to be 105%.

Regarding `Cc1ccc(S(=O)(=O)NCC(=O)Nc2ccc3cc(Br)cnc3n2)cc1` [CBK067429], the viability at 28.5 h, 10 µM is 95.6%.

As to `CCNC(=O)N[C@H]1CC[C@]2(C)CCC([C@H](C)C(=O)N3CCCC3)[C@H](O)[C@H]2[C@@H]1C` (stereo partly drawn) [CBK289456], the viability at 28.5 h, 10 µM was found to be 116%.

Turning to `O=C(CN(c1ccccc1)S(=O)(=O)c1ccccc1[N+](=O)[O-])Nc1ccccc1` [CBK263777], the viability at 28.5 h, 10 µM came to 76.3%.

As to `Cc1cccc(NC(=O)COc2ccccc2CNc2ccc(Br)cc2)c1` [CBK266534], the viability at 28.5 h, 10 µM came out at 101%.

Take `O=C(c1cccnc1)N1CCN(Cc2ccc([N+](=O)[O-])cc2)CC1` [CBK263026]: the viability at 28.5 h, 10 µM was 93.4%.

For `O=C(c1nc(SCc2ccccc2)ncc1Cl)N1CCN(c2cccc(Cl)c2)CC1` [CBK268712], the viability at 28.5 h, 10 µM amounted to 113%.

Turning to `Cc1cc(C)c(NS(=O)(=O)c2ccc(NC(=S)Nc3ccc(S(N)(=O)=O)cc3)cc2)c(C)c1` [CBK267005], the viability at 28.5 h, 10 µM worked out at 94.2%.

In the case of `Cn1c2ccccc2c2cc(C(O)(CC(=O)CC(O)(c3ccc4c(c3)c3ccccc3n4C)C(F)(F)F)C(F)(F)F)ccc21` (stereo not drawn) [CBK262254], the viability at 28.5 h, 10 µM came to 88%.

As for `O=C(NCc1cccc(C(F)(F)F)c1)N1CCCCC1CO` (stereo not drawn) [CBK156165], the viability at 28.5 h, 10 µM was 90.7%.

On to `Cn1c(=O)c(C(N)=O)c(O)c2ccccc21` [CBK027440], for which the viability at 28.5 h, 10 µM was 78.6%.
